# Publication PMC11271582
# Where “and” joins values, the source holds several entries; their conditions need not be identical. Identical values can stand only once.
# Key:
# [1] = test system: DENV-1 or DENV-2; details: non-human primates; cited from earlier work
# [2] = test system: protein synthesis (RNA translation) in Huh7/Lunet-T7 cells; test: ribopuromycylation assay; format: cell-based, human; details: 200 µg/ml
# Procedure: A protocol for the ribopuromycylation method to detect nascent protein synthesis[52] was integrated into the workflow for the determination of VPs formation. In brief, cycloheximide (CHX, 200 µg/ml) was added to cells 30 min before the start of a four-hour treatment with 35 nM JNJ-A07 (or vehicle control) to block de novo protein synthesis. Thereafter, the medium was replaced with DMEMComplete prewarmed to 37 °C, to which puromycin was added at a final concentration of 10 µg/ml. Cells were incubated at 37 °C for 5 minutes and then either fixed for microscopy or lysed for western blot analysis.
# [3] = test system: DENV-2/16681; parameters: method as in PMID 34671169; details: pan-serotype; cited from earlier work
# [4] = test system: ZIKV; parameters: method as in PMID 34671169; details: cited from earlier work
# [5] = test system: YFV; details: cited from earlier work
# [6] = test system: DENV vesicle packets (VPs) formation; test: determination of VPs formation (pIRO-D system, TEM) in Huh7/Lunet-T7 cells
# [7] = test system: cells; parameters: method as in Kaptein et al, Nature, 2021; details: at used concentrations; ref Kaptein et al, Nature, 2021; cited from earlier work
# [8] = target: DENV NS1-5 polyprotein (Dengue virus type 2, UniProt P29990); test: polyprotein processing by western blot (pIRO-D system); details: 35 nM, regardless of the time of addition
# DENV NS1-5 polyprotein, sequence (P29990 2244-2491): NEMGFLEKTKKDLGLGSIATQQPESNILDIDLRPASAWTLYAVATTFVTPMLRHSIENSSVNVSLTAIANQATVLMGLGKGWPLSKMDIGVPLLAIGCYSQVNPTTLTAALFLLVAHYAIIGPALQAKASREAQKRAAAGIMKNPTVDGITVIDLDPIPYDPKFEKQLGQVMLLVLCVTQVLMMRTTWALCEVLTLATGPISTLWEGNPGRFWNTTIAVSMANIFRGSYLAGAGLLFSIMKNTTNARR
# [9] = target: DENV NS4B and NS3 (Dengue virus type 2, UniProt P29990); test: imaging-based colocalization of click-labeled PAL compounds with DENV proteins (pIRO-D); details: 1 µM; pIRO-D WT, Huh7/Lunet-T7 cells
# DENV NS4B and NS3, sequence (P29990 2244-2491): as above
# [10] = target: T1, Calnexin-HA (Homo sapiens, UniProt P27824); test: photoaffinity labeling and click labeling on agarose beads (specificity control); format: binding; details: 1 µM, UV 365 nm
# T1 construct: expressed in transfected cells
# T1 sequence (P27824 21-592): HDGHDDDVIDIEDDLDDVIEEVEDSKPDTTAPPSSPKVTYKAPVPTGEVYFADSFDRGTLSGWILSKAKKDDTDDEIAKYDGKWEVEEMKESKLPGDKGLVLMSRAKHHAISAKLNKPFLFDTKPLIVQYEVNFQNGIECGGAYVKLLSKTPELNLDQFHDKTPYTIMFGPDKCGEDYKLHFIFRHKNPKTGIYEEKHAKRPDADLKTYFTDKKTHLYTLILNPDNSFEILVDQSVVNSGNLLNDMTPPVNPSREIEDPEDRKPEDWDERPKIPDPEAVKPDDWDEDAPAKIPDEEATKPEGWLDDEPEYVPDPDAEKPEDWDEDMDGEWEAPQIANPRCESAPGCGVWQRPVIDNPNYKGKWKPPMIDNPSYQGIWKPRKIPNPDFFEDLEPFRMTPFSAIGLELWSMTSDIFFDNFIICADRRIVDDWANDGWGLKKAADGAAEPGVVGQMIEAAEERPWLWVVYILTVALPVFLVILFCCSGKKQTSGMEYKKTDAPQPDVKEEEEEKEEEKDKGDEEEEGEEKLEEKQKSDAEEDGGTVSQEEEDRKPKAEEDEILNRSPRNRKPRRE
# [11] = test system: T2, WT (transient replicon assay, sgDVs-R2A, DENV 2/16681); test: microbe, parasite or virus in culture; parameters: species or system Huh7-derived cells (sheet title cut off after 'Hu'); transient DENV-2 replicon assay, inhibition of wild-type replicon replication; details: wild-type replicon, replicate
# T2 construct: 16681 wild-type subgenomic reporter replicon sgDVs-R2A
# [12] = target: ZIKV NS4B (Zika virus, UniProt A0A024B7W1); test: imaging-based colocalization of click-labeled PAL compound with ZIKV NS4B (pIRO-Z); details: 1 µM, Huh7/Lunet-T7 cells
# ZIKV NS4B, sequence (A0A024B7W1 2270-2520): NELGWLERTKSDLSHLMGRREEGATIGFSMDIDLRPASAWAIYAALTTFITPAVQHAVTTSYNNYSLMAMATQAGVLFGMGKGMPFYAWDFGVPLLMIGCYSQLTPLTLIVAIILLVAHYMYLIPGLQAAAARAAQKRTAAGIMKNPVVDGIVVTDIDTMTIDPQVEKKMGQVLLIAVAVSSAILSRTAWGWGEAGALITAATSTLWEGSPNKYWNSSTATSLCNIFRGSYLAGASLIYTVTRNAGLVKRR
compound,measurement,setting,value
COc1cc(N[C@H](C(=O)c2c[nH]c3ccc(OC(F)(F)F)cc23)c2ccc(Cl)cc2OC)cc(S(C)(=O)=O)c1 [Mosnodenvir],efficacy against infection with either DENV-1 or DENV-2,[1],highly effective
"C[C@@H]1C[C@@H]([C@H](O)CC2CC(=O)NC(=O)C2)C(=O)[C@@H](C)C1 [CHX, cycloheximide]",RNA translation (puromycin incorporation),[2],completely arrested RNA translation
COc1cc(NC(C(=O)N2CCc3ccc(OC(F)(F)F)cc32)c2ccc(Cl)cc2)cc(OCCCC(=O)O)c1 (stereo not shown) [JNJ-A07],activity against DENV,[3],nano- to picomolar
same,antiviral activity against ZIKV,[4],marginal antiviral activity
same,antiviral activity against YFV lower compared to an average value for a DENV isolate,[5],about 1000 times
same,VPE diameter,[6]; 35 nM,no effect on VPE diameter
same,VPs in time-of-addition experiment,"[6]; 35 nM added early, 4 h after transfection",almost complete loss of VPs
same,VPE formation efficiency in time-of-addition experiment,"[6]; 35 nM added late, 16 h after transfection",reduced to a much lower degree
same,VPE decay with protein synthesis blocked,"[6]; 35 nM with CHX 200 µg/ml, compared to CHX only",does not accelerate VPE decay
same,VPE efficiency,"[6]; 35 nM, NS4B resistance mutants",not affected
same,cytotoxicity,[7],not cytotoxic
same,effect on polyprotein processing,[8],no apparent effect on polyprotein processing
C#CCCC1(CCn2cc(C(=O)C(Nc3cc(OC)cc(OCCOC)c3)c3ccc(Cl)cc3OC)c3cc(OC(F)(F)F)ccc32)N=N1 (stereo not shown) [Compound B],"colocalization of labeled PAL compound with NS4B (and NS3), Pearson correlation",[9],significantly lower colocalization
C#CCCC1(CCn2cc(C(=O)C(Nc3cc(OC)cc(OCCOC)c3)c3ccc(Cl)cc3OC)c3cc(OC(F)(F)F)ccc32)N=N1 (stereo not shown) [Compound A],Cy5.5 labeling of HA-tagged Calnexin,[10],No labeling
same,EC50,"[11]; Dengue virus, Experimental series=1",65 nM
same,EC50,"[11]; Dengue virus, Experimental series=2",61 nM
same,EC50,"[11]; Dengue virus, Experimental series=3",52.9 nM
same,EC50,"[11]; Experimental series=1, inhibitor",58 nM and 52 nM
same,EC50,"[11]; Experimental series=2, inhibitor",48 nM and 49 nM
same,EC50,"[11]; Experimental series=3, inhibitor",68.3 nM and 64.3 nM
same,"colocalization of labeled PAL compound with NS4B (and NS3), Pearson correlation",[9],high degree of colocalization
same,colocalization of labeled compound with ZIKV NS4B,[12],"low-level, albeit significant colocalization"
